In ChEMBL document CHEMBL1132189, “Three-dimensional quantitative structure-activity relationship analyses using comparative molecular field analysis and comparative molecular similarity indices analysis to elucidate selectivity differences of inhibitors binding to trypsin, thrombin, and factor Xa” (J Med Chem, 1999):

Legend:
[1] = target: Prothrombin (Bos taurus, UniProt P00735); test: Binding affinity towards thrombin
[2] = target: T1, Serine protease 1 (Bos taurus, UniProt P00760); test: Binding affinity towards trypsin
T1 sequence (P00760 whole entry): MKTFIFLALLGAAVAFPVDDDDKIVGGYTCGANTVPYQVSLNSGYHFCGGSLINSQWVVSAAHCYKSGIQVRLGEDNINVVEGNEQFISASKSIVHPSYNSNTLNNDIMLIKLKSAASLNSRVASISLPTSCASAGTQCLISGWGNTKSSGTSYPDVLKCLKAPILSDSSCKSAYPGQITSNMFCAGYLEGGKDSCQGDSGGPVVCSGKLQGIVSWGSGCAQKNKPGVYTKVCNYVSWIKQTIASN

[3] = target: Coagulation factor X (Homo sapiens, UniProt P00742); test: Binding affinity towards Coagulation factor Xa
Sequence of Coagulation factor X (P00742 41-179 limits assumed): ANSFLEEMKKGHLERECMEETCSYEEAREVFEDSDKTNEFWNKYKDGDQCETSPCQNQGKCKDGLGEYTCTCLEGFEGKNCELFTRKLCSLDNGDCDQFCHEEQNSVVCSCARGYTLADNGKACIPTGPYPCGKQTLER
Sequence of Coagulation factor X (P00742 235-488 limits assumed): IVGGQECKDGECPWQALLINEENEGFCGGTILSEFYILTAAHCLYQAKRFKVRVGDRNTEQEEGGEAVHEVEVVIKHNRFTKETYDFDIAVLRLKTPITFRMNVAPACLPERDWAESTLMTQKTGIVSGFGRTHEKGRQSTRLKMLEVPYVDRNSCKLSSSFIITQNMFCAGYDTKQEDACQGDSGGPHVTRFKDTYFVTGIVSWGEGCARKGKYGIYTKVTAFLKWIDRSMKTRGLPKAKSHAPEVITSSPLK

| Ki [1] [µM] | Ki [2] [µM] | Ki [3] [µM] | SMILES |
| --- | --- | --- | --- |
| – | 29 | 230 | CC1CCN(C(=O)[C@@H](N)Cc2cccc(C(=N)N)c2)CC1 |
| 0.037 | 0.22 | 19 | N=C(N)c1cccc(C[C@H](NS(=O)(=O)c2ccc3ccccc3c2)C(=O)N2CCC(C=O)CC2)c1 |
| 0.28 | 0.12 | 17 | N=C(N)c1cccc(C[C@H](NS(=O)(=O)c2ccc3ccccc3c2)C(=O)N2CCC[C@H](C(=O)NCc3ccccc3)C2)c1 |
| 0.631 | 1 | 20 | N=C(N)c1cccc(C[C@H](NS(=O)(=O)c2ccc3ccccc3c2)C(=O)N2CCC[C@H]2C(=O)OCc2ccccc2)c1 |
| 0.12 | 1.51 | 2.3 | N=C(N)c1cccc(C[C@H](NS(=O)(=O)c2ccc3ccccc3c2)C(=O)N2CCCc3ccccc32)c1 |
| 0.0889 | 0.78 | 100 | COc1cc(C)c(S(=O)(=O)N[C@@H](Cc2cccc(C(=N)N)c2)C(=O)N2CCC(C)CC2)c(C)c1C |
| 0.34 | – | 180 | CC1CCN(C(=O)[C@H](Cc2cccc(C(=N)N)c2)NS(=O)(=O)c2cccc3cccnc23)CC1 |
| 0.042 | 0.52 | 2.2 | N=C(N)c1cccc(C[C@H](NS(=O)(=O)c2ccc3ccccc3c2)C(=O)OCc2ccccc2)c1 |
| 0.005 | 0.2 | 12 | CC1CCN(C(=O)[C@H](Cc2cccc(C(=N)N)c2)NS(=O)(=O)c2ccc(C(C)(C)C)cc2)CC1 |
| 5.7 | 25.1 | 26 | CNC(=O)[C@H](Cc1cccc(C(=N)N)c1)NS(=O)(=O)c1ccc2ccccc2c1 |
| 0.11 | 1.41 | 3.5 | CC(C)OC(=O)[C@H](Cc1cccc(C(=N)N)c1)NS(=O)(=O)c1ccc2ccccc2c1 |
| 0.511 | 0.427 | 16 | CC(C)OC(=O)[C@H]1CCCN(C(=O)[C@H](Cc2cccc(C(=N)N)c2)NS(=O)(=O)c2ccc3ccccc3c2)C1 |
| 0.52 | 0.027 | 27 | N=C(N)c1cccc(C[C@H](NS(=O)(=O)c2ccc3ccccc3c2)C(=O)N2CCN(c3ccccc3)CC2)c1 |
| 0.18 | 0.991 | 83.2 | COC(=O)C1CCN(C(=O)[C@H](Cc2cccc(C(=N)N)c2)NS(=O)(=O)c2c(C)cc(C)cc2C)CC1 |
| 0.00417 | 0.17 | 3.89 | CN(C)c1cccc2c(S(=O)(=O)N[C@@H](Cc3cccc(C(=N)N)c3)C(=O)N3CCN(S(C)(=O)=O)CC3)cccc12 |
| 0.019 | 0.02 | 77.6 | COC(=O)N1CCN(C(=O)[C@H](Cc2cccc(C(=N)N)c2)NS(=O)(=O)c2ccc3ccccc3c2)CC1 |
| 1.2 | 14.1 | 64.6 | CC1CCN(C(=O)[C@H](Cc2cccc(C(=N)N)c2)NC(=O)OC(C)(C)C)CC1 |
| 0.0741 | 0.69 | 2 | CC1CCN(C(=O)[C@H](Cc2cccc(C(=N)N)c2)NS(=O)(=O)c2c(C(C)C)cc(C(C)C)cc2C(C)C)CC1 |
| 0.013 | 0.26 | 3.1 | CCCCOC(=O)[C@H](Cc1cccc(C(=N)N)c1)NS(=O)(=O)c1ccc2ccccc2c1 |
| – | 32 | 10 | CNC(=O)[C@H](Cc1cccc(C(=N)N)c1)NS(=O)(=O)c1c(C)c(C)c2c(c1C)CCC(C)(C)O2 |
| 0.0646 | – | 38 | N=C(N)c1cccc(C[C@H](NS(=O)(=O)c2ccc3ccccc3c2)C(=O)N2CCCCC2)c1 |
| – | 1000 | 640 | CNC(=O)[C@H](Cc1cccc(C(=N)N)c1)NS(=O)(=O)c1c(C)cc(C)cc1C |
| – | 31 | 41 | N=C(N)c1cccc(C[C@H](NS(=O)(=O)c2ccc3ccccc3c2)C(=O)N2CC(C(=O)O)=Cc3ccccc32)c1 |
| 0.34 | – | 15.1 | Cc1ccc(S(=O)(=O)N[C@@H](Cc2cccc(C(=N)N)c2)C(=O)N2CCCCC2)cc1 |
| – | 16 | 130 | N=C(N)c1cccc(C[C@H](NS(=O)(=O)c2ccc3ccccc3c2)C(=O)N2CCC[C@H]2C(=O)O)c1 |

| SMILES | Ki [1] [µM] | Ki [2] [µM] | Ki [3] [µM] |
| --- | --- | --- | --- |
| COC(=O)[C@H](Cc1cccc(C(=N)N)c1)NS(=O)(=O)c1ccc2ccccc2c1 | 0.28 | 2.51 | 2.51 |
| N=C(N)c1cccc(C[C@H](NS(=O)(=O)c2ccc3ccccc3c2)C(=O)N2CCC(C(=O)O)CC2)c1 | 0.57 | 0.579 | 43.4 |
| CN1CCN(C(=O)[C@H](Cc2cccc(C(=N)N)c2)NS(=O)(=O)c2ccc3ccccc3c2)CC1 | 0.036 | 1.3 | 30 |
| N=C(N)c1cccc(C[C@H](NS(=O)(=O)c2ccc3ccccc3c2)C(=O)N2CCCCCCC2)c1 | 0.03 | 0.61 | 22 |
| CNC(=O)[C@H]1CCCN(C(=O)[C@H](Cc2cccc(C(=N)N)c2)NS(=O)(=O)c2c(C(C)C)cc(C(C)C)cc2C(C)C)C1 | 0.23 | 0.794 | 1.51 |
| N=C(N)c1cccc(C[C@H](NS(=O)(=O)c2ccc3ccccc3c2)C(=O)N2CCCC[C@@H]2C(=O)O)c1 | 0.26 | 0.631 | 38 |
| N=C(N)c1cccc(C[C@H](NS(=O)(=O)c2ccc3ccccc3c2)C(=O)N2CCC[C@H](C(=O)O)C2)c1 | 1.1 | […] | […] |
| Cc1c(C)c(S(=O)(=O)N[C@@H](Cc2cccc(C(=N)N)c2)C(=O)N2CCN(S(C)(=O)=O)CC2)c(C)c2c1OC(C)(C)CC2 | 0.00741 | 0.76 | 74.1 |
| CS(=O)(=O)N1CCN(C(=O)[C@@H](N)Cc2cccc(C(=N)N)c2)CC1 | 13 | 29 | 1000 |
| Cc1ccc(S(=O)(=O)N[C@@H](Cc2cccc(C(=N)N)c2)C(=O)N2CCC(C)CC2)cc1 | 0.026 | 0.52 | 71 |
| COC(=O)[C@H]1C[C@H](C)CCN1C(=O)[C@H](Cc1cccc(C(=N)N)c1)NS(=O)(=O)c1ccc2ccccc2c1 | 0.0959 | 2.2 | […] |
| COC(=O)[C@H]1CCCCN1C(=O)[C@H](Cc1cccc(C(=N)N)c1)NS(=O)(=O)c1ccc2ccccc2c1 | 0.0692 | 1.9 | 46 |
| CC(C)(C)c1ccc(S(=O)(=O)N[C@@H](Cc2cccc(C(=N)N)c2)C(=O)N2CCN(S(C)(=O)=O)CC2)cc1 | 0.00427 | 0.16 | – |
| CC(C)c1cc(C(C)C)c(S(=O)(=O)N[C@@H](Cc2cccc(C(=N)N)c2)C(=O)N2CCC[C@H](C(=O)O)C2)c(C(C)C)c1 | – | 2.4 | 13 |
| CC(=O)N1CCN(C(=O)[C@H](Cc2cccc(C(=N)N)c2)NS(=O)(=O)c2ccc3ccccc3c2)CC1 | – | 0.141 | 48 |
| CS(=O)(=O)N1CCN(C(=O)[C@H](Cc2cccc(C(=N)N)c2)NS(=O)(=O)c2ccc3ccccc3c2)CC1 | – | 0.19 | 22 |
| CC1CCN(C(=O)[C@H](Cc2cccc(C(=N)N)c2)NS(=O)(=O)c2ccc3ccccc3c2)CC1 | – | – | 41 |
| CS(=O)(=O)N1CCN(C(=O)[C@H](Cc2cccc(C(=N)N)c2)NS(=O)(=O)c2cccc3ccccc23)CC1 | 0.026 | – | 9.71 |
